pIC50: −log10 of the molar value.
Target: HIV-1 RNase H (Human immunodeficiency virus type 1 group M subtype B, UniProt P04585)
Assay: RNase H FRET assay, HIV-1 RNase H
Format: biochemical
Settings: IC50, HIV-1 RNase H, in vitro

O=C(OC[C@H]1O[C@@H](Oc2ccc(O)cc2)[C@H](OC(=O)c2cc(O)c(O)c(O)c2)[C@@H](O)[C@@H]1O)c1ccc(O)cc1 [hyemaloside B (2), hyemaloside B] showed a pIC50 of under 4.74.

— paper PMC2586124 (Journal of natural products, 2008)
